The record followed here is patent publication US5679671A, “Amino acid derivative” (Eisai Co., Ltd., priority 1993, dated 1997).

Assay type in all cases: biochemical
Test [1] concerns the target T1, ACE (Rattus norvegicus, UniProt P47820).
T1 construct: membrane fraction prepared from rat lung; from tissue; host or cells: rat lung, membrane fraction (method of Wu-Wong et al.)
T1 sequence (P47820 36-1313): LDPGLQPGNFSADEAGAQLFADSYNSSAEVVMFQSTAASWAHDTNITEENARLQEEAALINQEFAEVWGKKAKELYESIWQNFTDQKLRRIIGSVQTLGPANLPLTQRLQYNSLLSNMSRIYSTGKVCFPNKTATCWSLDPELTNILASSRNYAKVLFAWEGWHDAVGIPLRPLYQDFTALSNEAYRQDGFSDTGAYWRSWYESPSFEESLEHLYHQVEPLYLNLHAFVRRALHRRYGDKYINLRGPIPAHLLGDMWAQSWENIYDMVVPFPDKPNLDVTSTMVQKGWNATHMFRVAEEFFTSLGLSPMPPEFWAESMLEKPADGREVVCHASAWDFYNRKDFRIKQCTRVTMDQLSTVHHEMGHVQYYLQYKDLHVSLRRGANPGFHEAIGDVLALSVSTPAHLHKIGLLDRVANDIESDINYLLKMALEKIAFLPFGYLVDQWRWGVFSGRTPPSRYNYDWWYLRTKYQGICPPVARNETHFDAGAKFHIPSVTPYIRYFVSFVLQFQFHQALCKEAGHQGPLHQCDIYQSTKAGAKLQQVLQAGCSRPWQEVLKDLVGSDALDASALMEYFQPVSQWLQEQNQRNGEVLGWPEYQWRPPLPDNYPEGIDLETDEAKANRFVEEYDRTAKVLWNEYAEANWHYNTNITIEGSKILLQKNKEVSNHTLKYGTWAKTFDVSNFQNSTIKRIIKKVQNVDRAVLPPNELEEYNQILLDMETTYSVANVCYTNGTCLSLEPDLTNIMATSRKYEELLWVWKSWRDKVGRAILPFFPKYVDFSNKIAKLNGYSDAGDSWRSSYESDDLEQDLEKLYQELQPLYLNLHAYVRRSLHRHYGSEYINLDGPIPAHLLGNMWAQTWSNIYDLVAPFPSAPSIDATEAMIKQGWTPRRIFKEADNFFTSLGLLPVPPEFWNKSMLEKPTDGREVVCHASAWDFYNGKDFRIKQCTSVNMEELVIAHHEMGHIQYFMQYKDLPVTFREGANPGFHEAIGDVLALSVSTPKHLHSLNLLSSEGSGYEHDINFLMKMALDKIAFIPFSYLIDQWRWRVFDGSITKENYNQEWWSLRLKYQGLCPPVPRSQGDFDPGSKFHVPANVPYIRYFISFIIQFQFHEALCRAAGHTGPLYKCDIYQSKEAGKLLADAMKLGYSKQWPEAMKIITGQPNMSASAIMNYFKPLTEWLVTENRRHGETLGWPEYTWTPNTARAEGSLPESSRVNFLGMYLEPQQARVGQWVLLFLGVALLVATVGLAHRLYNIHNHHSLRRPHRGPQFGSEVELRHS
The test can be described thus: ACE inhibition activity (Experiment F-1). The settings on record: rat lung membrane fraction, pH 8.3. How it is done:
As a source of the enzyme ACE, a membrane fraction prepared from rat lung in accordance with the method of Wu-Wong et al. (Characterization of Endthelin Converting Enzyme in Rat Lung., Jinshyum R. Wu-Wong, Gerald P. Budzik, Edward M, Devine and Terry J. Opgenorth, Biochem. Biophys. Res. Commun., 1990, 171, 1291-1296.) was used. The ACE activity was determined with the use of a modification (modified to a borate buffer pH 8.3) of the method of Cushman and Cheung (Spectrophotometric Assay and Properties of the Angiotensin-Converting Enzyme of Rabbit Lung., Cushman D. W. and Cheung H. S., 1971, 20, 1637-1648.). Now the procedure will be briefly described.
In the presence of ACE, the hippurate liberated from hippuryl-histidyl-leucine (Hippuryl-His-Leu (Peptide Institute Inc., Japan)) was extracted with ethyl acetate and then the absorbance was measured at a wavelength of 228 nm.
(§1) With respect to the NEP inhibition activity and the ACE inhibition activity, the inhibitor was added to the assay systems of both enzyme activities as described above in such a manner as to give the final concentrations of 1, 3, 10, 30, 100, 300 and 1000 inhibition curves were prepared, and then the concentration at which 50% inhibition was achieved was taken as IC50.

Test [2] deals with T2, NEP (Rattus norvegicus, UniProt P07861).
T2 sequence (P07861 1-750): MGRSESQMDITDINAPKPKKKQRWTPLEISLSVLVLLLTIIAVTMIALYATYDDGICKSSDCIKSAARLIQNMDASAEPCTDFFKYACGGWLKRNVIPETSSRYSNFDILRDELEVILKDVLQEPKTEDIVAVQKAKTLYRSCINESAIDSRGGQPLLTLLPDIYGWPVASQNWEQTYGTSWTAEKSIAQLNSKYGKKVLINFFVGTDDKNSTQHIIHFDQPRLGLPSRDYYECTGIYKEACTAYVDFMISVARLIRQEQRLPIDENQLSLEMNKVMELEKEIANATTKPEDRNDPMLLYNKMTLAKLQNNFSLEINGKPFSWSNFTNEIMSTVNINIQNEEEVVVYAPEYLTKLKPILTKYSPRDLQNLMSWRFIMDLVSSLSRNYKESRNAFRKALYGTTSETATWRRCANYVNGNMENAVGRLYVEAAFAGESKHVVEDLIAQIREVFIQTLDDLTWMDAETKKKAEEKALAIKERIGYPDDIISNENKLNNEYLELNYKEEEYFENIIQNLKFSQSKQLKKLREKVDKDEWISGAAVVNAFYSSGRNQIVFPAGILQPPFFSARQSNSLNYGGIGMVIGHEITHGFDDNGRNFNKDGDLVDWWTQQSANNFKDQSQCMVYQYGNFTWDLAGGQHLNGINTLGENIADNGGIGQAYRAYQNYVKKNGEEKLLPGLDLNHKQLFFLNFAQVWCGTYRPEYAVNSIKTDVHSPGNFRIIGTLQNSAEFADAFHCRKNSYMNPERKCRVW
As to the kind of experiment: NEP inhibition activity (Experiment F-1). Set-up: membrane fraction prepared from rat renal cortex; from tissue; host or cells: rat renal cortex, membrane fraction (method of Booth and Kenny). The settings on record: rat renal cortex membrane fraction. How it is done: As a source of the enzyme NEP, a membrane fraction prepared from rat renal cortex in accordance with the method of Booth and Kenny (A Rapid Method for the Purification of Microvilli from Rabbit Kidney., Andrew G. Booth and A. John Kenny, Biochem. j., 1974, 142, 575-581.) was employed. The NEP activity was determined in accordance with the method of Orlowsky and Wilk (Purification and Specificity of a Membrane-Bound Metalloendpeptidase from Bovine Pituitaries., Marian Orlowsky and Shrwin Wilk, Biochemistry, 1981, 20, 4942-4950.). Now the procedure will be briefly described.
(§2) As a substrate, benzoyl-glycyl-arginyl-arginyl-2-naphthylamide (benzoyl-Gly-Arg-Arg-2-naphthylamide (Nova Biochem, Switzerland)) was used. In the presence of an NEP enzyme preparation and excessive leucine aminopeptidase (sigma chemical Co., U.S.A.), the liberated naphthylamine was made to undergo color development with first garnet (Sigma chemical Co., U.S.A.), followed by the measurement of the absorbance at a wavelength of 540 nm.
as §1

In test [3] the target is T2, NEP. As to the kind of experiment: NEP inhibition activity (Experiment C-1). The conditions noted are these: Table C-1. Here is the method: The NEP activity was determined by the following manner in accordance with the method of Orlowsky and Wilk (Purification and Specificity of a Membrane-Bound Metalloendpeptidase from Bovine Pituitaries., Marian Orlowsky and Shrwin Wilk, Biochemistry, 1981, 20, 4942-4950.).
as §2
With respect to the NEP inhibition activity, the test compound was added to the experimental system as described above in such a manner as to give the final concentrations of 1, 3, 10, 30, 100, 300 and 1000 nM, an inhibition curve was prepared, and then the concentration at which 50% inhibition was achieved was taken as IC50. As a comparative compound, [4S-[4α,7α(R*),12bβ]]-7-[(1-oxo-2-(S)-thio-3-phenyl-propyl)amino]-1,2,3,4,6,7,8,12b-octahydro-6-oxopyrido-[2,1-a][2]benzazepine-4-carboxylic acid was used.

For test [4], the target named is T1, ACE. The test can be described thus: ACE inhibition activity using rat lung (Experiment C-2). The settings on record: Table C-1; rat lung membrane fraction, borate buffer pH 8.3. How it is done:
The ACE inhibition activity was determined by using a membrane fraction prepared from rat lung in accordance with the method of Wu-Wong et al. (Characterization of Endthelin Converting Enzyme in Rat Lung., Junshyum R. Wu-Wong, Gerald P. Budzik, Edward M. Devine and Terry J. Opgenorth, Biochem. Biophys. Res. Commun., 1990, 171, 1291-1296.).
The ACE activity was determined with the use of a modification (modified to a borate buffer, pH 8.3) of the method of Cushman and Cheung (Spectrophotometric Assay and Properties of the Angiotensin-Converting Enzyme of Rabbit Lung., Cushman D. W. and Cheung H. S., 1971, 20, 1637-1648.).
In the presence of ACE, the hippurate liberated from hippuryl-histidyl-leucine (Hippuryl-His-Leu (PeptideInstitute Inc., Japan)) was extracted with ethyl acetate and then the absorbance was measured at a wavelength of 228 nm.
With respect to the ACE inhibition activity, the test compound was added to the reaction system as described above in such a manner as to give the final concentrations of 1, 3, 10, 30, 100, 300 and 1000 nM, an inhibition curve was prepared, and then the concentration at which 50% inhibition was achieved was taken as IC50. As a comparative compound, [4S-[4α,7α(R*),12bβ]]-7-[(1-oxo-2-(S)-thio-3-phenyl-propyl)amino]-1,2,3,4,6,7,8,12b-octahydro-6-oxopyrido-[2,1-a][2]benzazepine-4-carboxylic acid was used.

Take `O=C(O)CNC(=O)[C@@H](CS)Cc1ccc2c(c1)OCO2` [Comp cpd. F-1, N[1oxo-2(S)-mercaptomethyl-3-(3,4-methylenedioxy-phenyl)propyl]glycine, reference compound]: the results for the IC50 against ACE [1] and against NEP [2] were 48 nM and 17.1 nM, respectively.

`CC[C@H](C)[C@H](S)C(=O)N[C@H]1CSc2ccccc2N(CC(=O)O)C1=O` [Example C-12, (R)-3-[[(2S,3S)-3-Methyl-1-oxo-2-thiopentyl]amino]-5-carboxymethyl-2,3-dihydro-1,5-benzothiazepin-4(5H)-one]: the IC50 (usually the midpoint of a concentration-inhibition curve) on NEP [3] was 15.1 nM; against ACE [4], 12.5 nM.

`O=C(N[C@H]1CCC[C@H]2SC[C@@H](C(=O)O)N2C1=O)[C@@H](S)Cc1ccc(F)cc1` [Example F-14, [3R-[3α,6α(S*),9aβ]]-6[[(S)-1-Oxo-2-thio-3-(4-fluorophenyl)propyl]amino]-octahydro-5-oxothiazol [3,2-a]azepine-3-carboxylic acid]: the half-inhibitory concentration (IC50) against ACE [1] amounted to 7.7 nM; on NEP [2], 22.5 nM.

Take `O=C(N[C@H]1CCC[C@H]2SC[C@@H](C(=O)O)N2C1=O)[C@@H](CS)Cc1ccccc1` [Example F-18, [3R-[3α,6α(S*),9aβ]]-6-[[(S)-1-Oxo-2-thiomethyl-3-phenylpropyl]amino]-octahydro-5-oxothiazol[3,2-a]-azepine-3-carboxylic acid]: the IC50 came to 7 nM on ACE [1] and 5.6 nM against NEP [2].

As for `COc1ccc(C[C@H](S)C(=O)N[C@H]2CCC[C@H]3SC[C@@H](C(=O)O)N3C2=O)cc1` [Example F-19, [3R-[3α,6α(S*),9aβ]]-6-[[(S)-1-Oxo-2-thio-3-(4-methoxyphenyl)propyl]amino]-octahydro-5-oxothiazol-[3,2-a]azepine-3-carboxylic acid], the concentration for half-maximal inhibition (IC50) against ACE [1] turned out to be 13.5 nM; at NEP [2], 104 nM.

Regarding `O=C(N[C@H]1CCC[C@H]2SC[C@@H](C(=O)O)N2C1=O)[C@@H](S)Cc1ccc(-c2ccccc2)cc1` [Example F-20, [3R-[3α,6α(S*),9aβ]]-6-[[(S)-1-Oxo-2-thio-3-(1,4-biphenyl)propyl]amino]-octahydro-5-oxothiazol[3,2-a]azepine3-carboxylic acid], the half-inhibitory concentration (IC50) was determined as 16 nM against ACE [1] and 56.5 nM at NEP [2].

Take `O=C(N[C@H]1CCC[C@H]2SC[C@@H](C(=O)O)N2C1=O)[C@@H](S)Cc1cccs1` [Example F-22, [3R-[3α,6α(S*),9aβ]]-6-[[(S)-1-Oxo-2-thio-3-(2-thienyl)propyl]amino]-octahydro-5-oxothiazol-[3,2-a]azepine-3-carboxylic acid]: the results for the IC50 on ACE [1] and against NEP [2] were 13 nM and 9 nM, respectively.

Take `CC[C@@H](C)[C@H](S)C(=O)N[C@H]1CCC[C@H]2SC[C@@H](C(=O)O)N2C1=O` [Example F-23, [3R-[3α,6α(S*),9aβ]]-6-[[(S, 3R)-1-Oxo-2-thio-3-methylpentylamino]-octahydro-5-oxothiazol-[3,2-a]azepine-3-carboxylic acid]: the IC50 was determined as 8 nM at ACE [1] and 120 nM against NEP [2].

Turning to `CC[C@H](S)C(=O)N[C@H]1CCC[C@H]2SC[C@@H](C(=O)O)N2C1=O` [Example F-24, [3R-[3α,6α(S*),9aβ]]-6-[(S)-1-Oxo-2-thiobutylamino]-octahydro-5-oxothiazol[3,2-a]azepine-3-carboxylic acid], the IC50 against ACE [1] was 13 nM; at NEP [2], 8 nM.

For `CC(C)[C@H](S)C(=O)N[C@H]1CCC[C@H]2SC[C@@H](C(=O)O)N2C1=O` [Example F-25, [3R-[3α,6α(S*),9aβ]]-6-[(S)-1-Oxo-2-thio-3-methylbutylamino]-octahydro-5-oxothiazol[3,2-a]azepine-3-carboxylic acid], the results for the IC50 against ACE [1] and against NEP [2] were 9 nM and 265 nM, respectively.
